Results taken from publication PMC4560423, “Identification and Characterization of a Novel Galactofuranose-Specific β-D-Galactofuranosidase from Streptomyces Species” (PLoS ONE, 2015).

Assays:
[1] = target: T1, ORF1110 Galf-ase (ORF1110 protein) (Streptomyces sp. JHA19, UniProt A0A0K2SRV3); assay: inhibition of pNP-β-D-Galf hydrolysis, pNP absorbance at […] nm; format: biochemical
T1 construct: recombinant from E. coli BL21(DE3)CodonPlus, pET50b, N-terminal 2xHis6 and Nus tags (cut by HRV3C for TLC only); ORF 786 aa; GH2 with C-terminal AbfB domain
T1 sequence (A0A0K2SRV3 46-786): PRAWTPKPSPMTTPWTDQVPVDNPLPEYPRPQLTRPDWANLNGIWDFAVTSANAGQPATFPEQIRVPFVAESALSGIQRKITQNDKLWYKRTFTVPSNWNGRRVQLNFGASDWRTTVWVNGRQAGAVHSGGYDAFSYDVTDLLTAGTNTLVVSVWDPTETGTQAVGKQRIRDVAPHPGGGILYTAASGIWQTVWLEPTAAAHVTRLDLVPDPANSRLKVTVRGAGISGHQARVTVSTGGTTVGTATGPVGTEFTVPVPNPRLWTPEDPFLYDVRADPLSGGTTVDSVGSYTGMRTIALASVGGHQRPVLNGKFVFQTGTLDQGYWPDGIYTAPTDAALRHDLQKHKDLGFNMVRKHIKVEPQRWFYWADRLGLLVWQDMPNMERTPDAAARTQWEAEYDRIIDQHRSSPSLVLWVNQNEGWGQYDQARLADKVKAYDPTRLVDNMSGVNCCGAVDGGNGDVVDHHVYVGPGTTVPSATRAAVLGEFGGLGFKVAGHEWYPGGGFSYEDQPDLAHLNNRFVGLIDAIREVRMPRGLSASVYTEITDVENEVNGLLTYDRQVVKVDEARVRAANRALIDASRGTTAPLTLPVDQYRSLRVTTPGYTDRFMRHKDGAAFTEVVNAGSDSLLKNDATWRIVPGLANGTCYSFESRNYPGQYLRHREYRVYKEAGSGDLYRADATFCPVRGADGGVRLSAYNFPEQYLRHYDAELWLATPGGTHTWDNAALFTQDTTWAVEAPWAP

[2] = test system: O=[N+]([O-])c1ccc(O[C@@H]2O[C@@H]([C@H](O)CO)[C@H](O)[C@H]2O)cc1; assay: purified protein; details: 37 °C, acetate buffer pH 4.5 (general assay; pH of the kinetics not stated)

Ki [1] | Compound | Km [2]
51 mM | O=C1O[C@@H](CO)[C@H](O)[C@H]1O [L-arabino-1,4-lactone] | –
– | ORF1110 Galf-ase (ORF1110 protein) (Streptomyces sp. JHA19) | 4.4 mM
